Our source for the photoluminescence quantum yield values is the Deep4Chem optical property database.

A short description of this data set: photoluminescence quantum yield (fraction); solvent given as SMILES.

Consider `Cn1nc(-c2ccccc2)c2n[nH]nc2c1=O`, for which the photoluminescence quantum yield is, setting by setting: (in CC#N) 0.34; (in CCO) 0.21; (in Cc1ccccc1) 0.23. `CCC1=C(C)C2=Cc3c4ccccc4c4n3[B-](c3ccc5cc6ccccc6cc5c3)(Oc3ccccc3-4)[N+]2=C1C` (stereo not drawn): the photoluminescence quantum yield (in CC#N) was determined as 0.66, the photoluminescence quantum yield (in CCCCCC) is 0.75, the photoluminescence quantum yield (in Cc1ccccc1) is 0.68 and the photoluminescence quantum yield (in ClCCl) amounted to 0.76. In the case of `Cc1ccc(-c2cc(-c3ccccc3)c3c(N)nc(N4CCCC4)c(C#N)c3n2)cc1`, the photoluminescence quantum yield (in CC#N) came to 0.046 and the photoluminescence quantum yield (in c1ccccc1) is 0.073. On to `CO[B-]1(OC)n2c(C)cc(C)c2C(c2ccc(I)cc2)=C2C(C)=CC(C)=[N+]21`, for which the photoluminescence quantum yield (in ClC(Cl)Cl) came to 0.52. Take `CC(C)[Si](C#Cc1ccc(C#C[Si](C(C)C)(C(C)C)C(C)C)c2nc3c(nc12)Cc1ccccc1-3)(C(C)C)C(C)C`: where the note is “in CCCCCC”, the photoluminescence quantum yield stood at 0.04. `Cc1c2c(nc3ccccc13)-c1cc3c(cc1CC2)-c1nc2ccccc2c(C)c1CC3` had a photoluminescence quantum yield (in ClC(Cl)Cl) of 0.435. As for `C(#Cc1ccccc1)c1ccccc1`, the photoluminescence quantum yield was 0.0015 (in CO), 0.003 (in ClC(Cl)Cl) and 0.003 (in ClCCl). For the setting “in c1ccccc1”, `COc1ccc(-c2nc3ccccc3oc2=O)cc1` displayed a photoluminescence quantum yield of 0.076. Compound `COC(=O)C12N=N[C@](C(=O)OC)(C3C4CCC(C4)C31)C1[C@@H]3CC[C@@H](C3)[C@H]12` (stereo partly drawn) returned a photoluminescence quantum yield (in CC#N) of 0.09. For the compound `COc1ccc(C#Cc2nc3ccccc3nc2-c2csc(OC)c2)cc1`, the photoluminescence quantum yield (in ClCCl) was found to be 0.32.

Consider `O=CC1=Cc2cocc2C=C(C=O)C1`, for which, where the note is “in ClC(Cl)Cl”, the photoluminescence quantum yield stood at 0. Consider `CCN(CC)c1ccc2c(-c3ccccc3C(=O)O)c3c([o+]c2c1)/C(=C/c1nc(C)n2ccccc12)CCC3`, for which the photoluminescence quantum yield (in ClCCl) was 0.3. With `CC(=O)c1ccc2ccc3c(NCCC(=O)NCCCCCCc4nc5c(=O)[nH]c(N)nc5n4[C@H]4C[C@H](O)[C@@H](CO)O4)ccc4ccc1c2c43`, the photoluminescence quantum yield reads like this: (in C1CCOC1) 0.62; (in CC#N) 0.72; (in CC(C)O) 0.58; (in CCO) 0.49; (in CN(C)C=O) 0.63; (in CO) 0.44. Besides, the photoluminescence quantum yield by setting is: (in CS(C)=O) 0.61; (in O) 0.27; (in OCC(O)CO) 0.38. `CCN(CC)c1ccc(/C=N/c2cc3nc4ccccc4nc3cc2/N=C/c2ccc(N(CC)CC)cc2O)c(O)c1` gave a photoluminescence quantum yield (in CC#N) of 0.21. The compound `O=c1oc2ccccc2cc1-c1cn2ccccc2n1` showed a photoluminescence quantum yield (in ClC(Cl)Cl) of 0.15. For the compound `O=c1c2cccc3cccc(c32)c2nc3ccccc3n12`, the photoluminescence quantum yield (in ClCCl) was 0.71. In the case of `O=C1/C(=C2\Sc3ccc(S(=O)(=O)Cl)cc3C2=O)Sc2ccc(S(=O)(=O)Cl)cc21`, the photoluminescence quantum yield is 0.949 (in C1COCCO1) and 0.012 (in CS(C)=O).

Compound `CN(C)c1ccc(-c2ccc(-c3cc(N4CCCCC4)c(C#N)c4c3-c3ccccc3CC4)cc2)cc1` had a photoluminescence quantum yield (in C1CCOC1) of 0.68. As for `CCCCN(CCCC)c1ccc(/C=C/c2ccc3nc(/C=C/c4ccc(N(C)C)cc4)c(-c4ccccc4)nc3c2)cc1`, the photoluminescence quantum yield is, setting by setting: (in C1COCCO1) 0.44; (in CC#N) 0.02; (in ClCCl) 0.24. Turning to `CCCCn1c(-c2ccc(-c3nnc(-c4ccccc4)o3)cc2)nc2c3ccccc3c3ccccc3c21`, the photoluminescence quantum yield (in ClCCl) is 0.61. In the case of `COc1ccc(-c2csc(/C(C#N)=N\Nc3ccc(C#N)cc3)n2)cc1`, the photoluminescence quantum yield by setting is: (in CC#N) 0.001; (in CCO) 0.002; (in CN(C)C=O) 0; (in Cc1ccccc1) 0.002; (in ClCCl) 0.002. Consider `O=C(O)CCCc1ccc2ccc3cccc4ccc1c2c34`, for which the photoluminescence quantum yield (in CO) was 0.68. Turning to `O=C1c2ccccc2-c2ccccc21`, the photoluminescence quantum yield is 0.0004 (in C1CCCCC1), 0.027 (in CC#N), 0.0009 (in CCO) and 0.0078 (in c1ccccc1). With `C[C@]12SC(=O)C=C1c1nc(-c3ccc(Cl)cc3Cl)[nH]c1C1=CC(=O)S[C@@]12C`, under “in CC#N”, the photoluminescence quantum yield came out at 0.11. Consider `CCc1cccc(CC)c1-c1c2ccccc2c(C#Cc2ccccc2)c2cc3ccccc3cc12`, for which, where the note is “in ClCCl”, the photoluminescence quantum yield stood at 0.57. For the compound `Cc1ccccc1C(=O)NN1C2=C(CC3=C1CC(C)(C)CC3=O)C(=O)CC(C)(C)C2`, the photoluminescence quantum yield (in C1CCOC1) was determined as 0.26; the photoluminescence quantum yield (in CC#N) was found to be 0.7; the photoluminescence quantum yield (in CC(C)=O) worked out at 0.53; the photoluminescence quantum yield (in CCCCCO) turned out to be 0.5; the photoluminescence quantum yield (in CO) was 0.3; the photoluminescence quantum yield (in ClC(Cl)Cl) is 0.64. This compound also yielded a photoluminescence quantum yield (in ClCCl) of 0.47. In the case of `N#Cc1nc(-c2ccc(N3c4ccccc4Oc4ccccc43)cc2)c(-c2ccc(N3c4ccccc4Oc4ccccc43)cc2)nc1C#N`, the photoluminescence quantum yield (in c1cc(-c2cccc(-n3c4ccccc4c4ccccc43)c2)cc(-n2c3ccccc3c3ccccc32)c1) is 0.15. Consider `CCOC(=O)C1=CNC=C(C(=O)OCC)C1c1ccccc1`, for which the photoluminescence quantum yield was 0.7 (in C1CCOC1) and 0.58 (in CO). Where the note is “in CO”, `COc1ccccc1-c1nc(-c2ccccc2)c(-c2ccccc2)[nH]1` returned a photoluminescence quantum yield of 0.29. `Cc1cc(C)c(B(c2cc(C#Cc3ccccc3)sc2-c2sc(C#Cc3ccccc3)cc2P(=O)(c2ccccc2)c2ccccc2)c2c(C)cc(C)cc2C)c(C)c1` yielded a photoluminescence quantum yield (in CO) of 0.61. Compound `O=P1(c2ccccc2)c2ccccc2-c2sc3ccccc3c21` (stereo not drawn) had a photoluminescence quantum yield (in ClCCl) of 0.71.

For the compound `CC(=O)c1c(N[C@@H](CS)C(=O)O)c2ccc(N(C)C)cc2oc1=O`, for the setting “in ClCCl”, the photoluminescence quantum yield came to 0.0025. Regarding `COc1cc(-c2cc(N3CCCCC3)c(C#N)c3c2-c2cccc4cccc-3c24)cc(OC)c1OC`, the photoluminescence quantum yield (in O) is 0.28.

With `CC[N+]1=C(/C=C/c2c(C)nn3c(-c4ccc(OC)cc4)ccnc23)C(C)(C)c2ccccc21`, the photoluminescence quantum yield is 0.37 (in CCO), 0.13 (in ClCCl) and 0.42 (in O).

`N#Cc1ccc(-c2cn3ccc[n+]3[n-]2)cc1` gave a photoluminescence quantum yield (in ClCCl) of 0.18. Regarding `C[Si](C)(C)C#CC1=CC2=c3cc(C#C[Si](C)(C)C)c4nc(C(F)(F)C(F)(F)C(F)(F)F)nc5c(C#C[Si](C)(C)C)cc(c3c54)C3=CC(C#C[Si](C)(C)C)=C4N=C(C(F)(F)C(F)(F)C(F)(F)F)N=C1C4C32` (stereo not drawn), the photoluminescence quantum yield (in C1CCOC1) amounted to 0.45. `c1ccc(-[c+]2c3ccccc3oc3ccccc32)cc1` gave a photoluminescence quantum yield (in CC#N) of 0.47. Turning to `Cc1ccc(N(c2ccc(C)cc2)c2ccc(-c3ccc(C=C(C#N)C#N)o3)cc2)cc1`, the photoluminescence quantum yield (in ClC(Cl)Cl) was found to be 0.1. Consider `N#C/C(=C\c1ccc(C#N)cc1)c1nc(-c2ccccc2)c(-c2ccccc2)s1`, for which the photoluminescence quantum yield (in CC#N) came out at 0.101. Where the note is “in C1COCCO1”, `COc1ccc(-c2ccc(-c3ccc(F)cc3)cc2)cc1` registered a photoluminescence quantum yield of 0.57.

For `O=c1c2ccccc2n(-c2ccc(-c3ccc(-n4c5ccccc5c5ccccc54)cc3)cc2)c2ccccc12`, the photoluminescence quantum yield (in ClCCl) worked out at 0.28. Take `CC(C)(C)OC(=O)COc1ccc2c(c1)oc(=O)c1c(=O)oc3ccccc3c12`: the photoluminescence quantum yield (in CS(C)=O) stood at 0.31 and the photoluminescence quantum yield (in ClCCl) was 0.008.

Take `Cc1ccccc1`: under “in C1CCCCC1”, the photoluminescence quantum yield is 0.22. For `O=C(c1ccc2c3c(cccc13)-c1cccc3c1C2CC=C3)c1c(CCc2ccccc2)c2ccc3cccc4c5cccc6ccc1c(c65)c2c34` (stereo not drawn), for the setting “in ClCCl”, the photoluminescence quantum yield was determined as 0.17.

In turn, `O=S(=O)(c1ccc(-c2ccc3c(c2)c2ccccc2n3-c2ccccc2)cc1)c1ccc(-c2ccc3c(c2)c2ccccc2n3-c2ccccc2)cc1` showed a photoluminescence quantum yield (in Cc1ccccc1) of 1. As for `CCCCCCCCCc1c2ccccc2cc2c1oc1c3c(c4ccccc4c12)-c1c(c2oc4cc5ccccc5cc4c2c2ccccc12)OCO3`, where the note is “in C1CCOC1”, the photoluminescence quantum yield was 0.7.

Take `Cc1cc(=O)oc2cc3c4ccccc4c4ccccc4c3cc12`: the photoluminescence quantum yield by setting is: (in CO) 0.09; (in ClC(Cl)Cl) 0.12. With `CC(C)(C)c1ccc2c(c1)c1cc(C(C)(C)C)ccc1n2-c1cccc(-c2nc(-c3cccc(-n4c5ccc(C(C)(C)C)cc5c5cc(C(C)(C)C)ccc54)c3)nc(-c3cccc(P(=O)(c4ccccc4)c4ccccc4)c3)n2)c1`, the photoluminescence quantum yield (in O=P(c1ccccc1)(c1ccccc1)c1ccccc1Oc1ccccc1P(=O)(c1ccccc1)c1ccccc1) is 0.55. Consider `COc1ccc(OC)c(C=O)c1`, for which the photoluminescence quantum yield reads like this: (in C1CCOC1) 0.0001; (in C1COCCO1) 0.0001; (in CC#N) 0.0001; (in CC(C)=O) 0.01; (in CCCO) 0.31; (in CCO) 0.26. In addition, the photoluminescence quantum yield turned out to be 0.0001 (in CN(C)C=O); 0.0001 (in CN(C)P(=O)(N(C)C)N(C)C); 0.11 (in CNC=O); 0.22 (in CO); 0.04 (in CS(C)=O); 0.01 (in ClC(Cl)Cl). This compound had a photoluminescence quantum yield (in NC=O) of 0.48. Consider `COc1cc2c3c4c(c5ccc(C(C)(C)C)cc5c5c(OC)cc(OC)c(c2c(OC)c1OC)c45)=[N+]1C3=Nc2c3c4cc(OC)c(OC)c(OC)c4c4c(OC)cc(OC)c5c6cc(C(C)(C)C)ccc6c(c3c54)n2[B-]1(F)F`, for which, for the setting “in Cc1ccccc1”, the photoluminescence quantum yield is 0.13. `COc1ccc(-c2c3ccccc3c(-c3ccc(OC)cc3)c3cc4sc(C)cc4cc23)cc1`: the photoluminescence quantum yield (in ClCCl) worked out at 0.52. As for `F[Si-](F)(c1ccccc1)(c1ccccc1)c1c2ccccc2cc2ccccc12`, the photoluminescence quantum yield (in C1CCOC1) was 0.76.

For `O=S(=O)(c1cccc(-n2c3ccccc3c3ccccc32)c1)c1cccc(-n2c3ccccc3c3ccccc32)c1`, the photoluminescence quantum yield is 0.109 (in CCCCC(CC)n1c2ccc(-n3c4ccccc4c4ccccc43)cc2c2cc(-n3c4ccccc4c4ccccc43)ccc21) and 0.218 (in c1cc(-n2c3ccccc3c3ccccc32)cc(-n2c3ccccc3c3ccccc32)c1).
